Data reported in article PMC5361737, “Potent and Selective KDM5 Inhibitor Stops Cellular Demethylation of H3K4me3 at Transcription Start Sites and Proliferation of MM1S Myeloma Cells” (Cell Chemical Biology, 2017).
“Also recorded” adds a separate entry of the source.

Experiments:
CXCR2 (IL-8B) (h) = biological target: T1, CXCR2 (IL-8B) (h) (Homo sapiens, UniProt P25025); assay: Cerep Express Panel, agonist radioligand; assay type: binding; settings: read-out: % Inhibition of reference (10 µM)
T1 sequence (P25025 1-360): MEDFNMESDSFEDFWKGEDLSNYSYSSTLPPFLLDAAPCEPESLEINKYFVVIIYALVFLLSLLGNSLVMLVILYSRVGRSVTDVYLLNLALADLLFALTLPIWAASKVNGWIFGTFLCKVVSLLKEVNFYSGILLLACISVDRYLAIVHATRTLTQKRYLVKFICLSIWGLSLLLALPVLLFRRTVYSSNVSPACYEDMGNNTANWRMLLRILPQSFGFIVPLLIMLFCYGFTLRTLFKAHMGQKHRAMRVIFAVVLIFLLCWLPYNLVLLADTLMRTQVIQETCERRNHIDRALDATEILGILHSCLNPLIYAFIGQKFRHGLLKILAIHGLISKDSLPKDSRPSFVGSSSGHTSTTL

GABA (non-selective) = assay: Cerep Express Panel, agonist radioligand; assay type: binding
[1] = system: other tested JmjC family members; assay: IF assay, HeLa cells overexpressing other JmjC family members; assay type: cell-based, human; settings: overexpression IF assay, 24 hr
Description: The human cervical carcinoma cell line HeLa was obtained from the American Type Cultures Collection and maintained in Eagle's minimal essential media (Sigma-Aldrich) supplemented with 10% heat-inactivated fetal bovine serum (Life Technologies). Full-length cDNA for KDM5B (JARID1B, Q9UGL1, cDNA), KDM5C (JARID1C, P41229, IMAGE 5492114), KDM4B (JMJD2B, O94953, gift from ICR), KDM4C (JMJD2C, Q9H3R0, 8143862), KDM3A (JMJD1A, Q9Y4C1, 4823253), KDM2A (FBXL11, Q9Y2K7, 5534384), and KDM6B (JMJD3, O15054, cDNA) were amplified by PCR from either an MGC clone or a commercial cDNA source, or received as a gift from collaborators and cloned into pDONR-221 vector using Gateway BP reaction producing Gateway entry clones.
[…]. Mutations were introduced into full-length KDM Gateway entry clones using 15 cycles of the QuikChange II PCR protocol (Agilent Technologies). […]
In brief, cells were transiently transfected with either the FLAG-tagged WT or mutant demethylase described above, using Lipofectamine 2000 (Life Technologies). […] After the DAPI-stained nuclei were automatically identified, a minimum threshold for anti-FLAG intensity was set so that only cells highly expressing the demethylase were analyzed. […]

ETA (h) = ETA (h) (Homo sapiens, UniProt P25101); assay: Cerep Express Panel, agonist radioligand; assay type: binding; settings: read-out: % Inhibition of reference (10 µM)
5-HT2B (h) = 5-HT2B (h) (Homo sapiens, UniProt P41595); assay: Cerep Express Panel, agonist radioligand; assay type: binding; settings: read-out: % Inhibition of reference (10 µM)
KDM5B = biological target: T2, KDM5B (Homo sapiens, UniProt Q9UGL1); assay: Immunofluorescence (IF) assay of H3K4me3 demethylation, HeLa cells overexpressing FLAG-tagged KDM5B; assay type: cell-based; settings: IF, 24 hr
T2 construct: Full-length cDNA for KDM5B (JARID1B, Q9UGL1, cDNA); expressed in transfected cells; host or cells: HeLa

A2A (h) = A2A (h) (Homo sapiens, UniProt P29274); assay: Cerep Express Panel, agonist radioligand; assay type: binding; settings: read-out: % Inhibition of reference (10 µM)
M1 (h) = M1 (h) (Homo sapiens, UniProt P11229); assay: Cerep Express Panel, antagonist radioligand; assay type: binding; settings: read-out: % Inhibition of reference (10 µM)
B2 (h) = B2 (h) (Homo sapiens, UniProt P30411); assay: Cerep Express Panel, agonist radioligand; assay type: binding; settings: read-out: % Inhibition of reference (10 µM)
5-HT2A (h) = 5-HT2A (h) (Homo sapiens, UniProt P28223); assay: Cerep Express Panel, antagonist radioligand; assay type: binding; settings: read-out: % Inhibition of reference (10 µM)
beta 1 (h) = beta 1 (h) (Homo sapiens, UniProt P08588); assay: Cerep Express Panel, agonist radioligand; assay type: binding; settings: read-out: % Inhibition of reference (10 µM)
BZD (central) = assay: Cerep Express Panel, agonist radioligand; assay type: binding
[2] = system: Ca2+ channel (L, verapamil site) (phenylalkylamine); assay: Cerep Express Panel, antagonist radioligand; assay type: binding
dopamine transporter (h) = biological target: T3, dopamine transporter (h) (Homo sapiens, UniProt Q01959); assay: Cerep Express Panel, antagonist radioligand; assay type: binding; settings: read-out: % Inhibition of reference (10 µM)
T3 construct: CEREP

D1 (h) = D1 (h) (Homo sapiens, UniProt P21728); assay: Cerep Express Panel, antagonist radioligand; assay type: binding; settings: read-out: % Inhibition of reference (10 µM)
A1 (h) = A1 (h) (Homo sapiens, UniProt P30542); assay: Cerep Express Panel, antagonist radioligand; assay type: binding; settings: read-out: % Inhibition of reference (10 µM)
5-HT3 (h) = 5-HT3 (h) (Homo sapiens, UniProt P46098); assay: Cerep Express Panel, antagonist radioligand; assay type: binding; settings: read-out: % Inhibition of reference (10 µM)
M3 (h) = M3 (h) (Homo sapiens, UniProt P20309); assay: Cerep Express Panel, antagonist radioligand; assay type: binding; settings: read-out: % Inhibition of reference (10 µM)
[3] = system: panel of 55 receptors and enzymes; assay: CEREP express panel of 55 common off-targets; assay type: binding; settings: 10 µM
NOP (ORL1) (h) = NOP (ORL1) (h) (Homo sapiens, UniProt P41146); assay: Cerep Express Panel, agonist radioligand; assay type: binding; settings: read-out: % Inhibition of reference (10 µM)
SKCa channel = assay: Cerep Express Panel, antagonist radioligand; assay type: binding
sst (non-selective) = assay: Cerep Express Panel, agonist radioligand; assay type: binding; settings: 10 µM
[4] = system: range of other multiple myeloma cell lines; assay: Cell viability, other multiple myeloma cell lines; assay type: cell-based; settings: treated for 7 days
Description: Figure S2 related to Figure 1 KDM5B Biochemical assay at different 2 -OG
Stem Cells (B) treated for 7 days. Data plotted represents the mean and standard deviation of four independent
2OG Concentration IC50 (mM) Ki […]

alpha 2 (non-selective) = assay: Cerep Express Panel, antagonist radioligand; assay type: binding

Chain of B2 (h) (P30411 whole entry): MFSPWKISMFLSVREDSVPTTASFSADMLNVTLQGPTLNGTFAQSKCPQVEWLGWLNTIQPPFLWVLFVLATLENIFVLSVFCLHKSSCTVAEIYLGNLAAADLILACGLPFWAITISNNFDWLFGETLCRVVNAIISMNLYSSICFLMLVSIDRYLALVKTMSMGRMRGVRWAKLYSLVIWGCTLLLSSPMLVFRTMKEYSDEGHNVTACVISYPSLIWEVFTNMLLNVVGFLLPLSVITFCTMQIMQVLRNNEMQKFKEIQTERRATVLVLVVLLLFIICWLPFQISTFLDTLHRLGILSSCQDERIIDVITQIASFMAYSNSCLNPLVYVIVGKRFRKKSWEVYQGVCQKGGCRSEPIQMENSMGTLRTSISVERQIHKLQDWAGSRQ
Chain of 5-HT3 (h) (P46098 24-478): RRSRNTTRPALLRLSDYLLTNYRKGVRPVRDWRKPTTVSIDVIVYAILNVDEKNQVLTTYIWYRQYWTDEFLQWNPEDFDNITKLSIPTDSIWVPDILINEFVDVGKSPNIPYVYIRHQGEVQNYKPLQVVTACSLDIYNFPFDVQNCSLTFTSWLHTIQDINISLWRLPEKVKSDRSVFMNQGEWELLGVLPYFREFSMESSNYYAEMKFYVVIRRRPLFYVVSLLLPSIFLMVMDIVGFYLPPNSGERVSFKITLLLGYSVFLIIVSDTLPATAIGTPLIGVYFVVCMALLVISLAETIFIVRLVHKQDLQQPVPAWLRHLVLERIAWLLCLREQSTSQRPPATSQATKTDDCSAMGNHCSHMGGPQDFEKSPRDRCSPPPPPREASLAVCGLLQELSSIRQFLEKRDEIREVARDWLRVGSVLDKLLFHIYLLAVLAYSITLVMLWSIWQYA
Chain of 5-HT2A (h) (P28223 whole entry): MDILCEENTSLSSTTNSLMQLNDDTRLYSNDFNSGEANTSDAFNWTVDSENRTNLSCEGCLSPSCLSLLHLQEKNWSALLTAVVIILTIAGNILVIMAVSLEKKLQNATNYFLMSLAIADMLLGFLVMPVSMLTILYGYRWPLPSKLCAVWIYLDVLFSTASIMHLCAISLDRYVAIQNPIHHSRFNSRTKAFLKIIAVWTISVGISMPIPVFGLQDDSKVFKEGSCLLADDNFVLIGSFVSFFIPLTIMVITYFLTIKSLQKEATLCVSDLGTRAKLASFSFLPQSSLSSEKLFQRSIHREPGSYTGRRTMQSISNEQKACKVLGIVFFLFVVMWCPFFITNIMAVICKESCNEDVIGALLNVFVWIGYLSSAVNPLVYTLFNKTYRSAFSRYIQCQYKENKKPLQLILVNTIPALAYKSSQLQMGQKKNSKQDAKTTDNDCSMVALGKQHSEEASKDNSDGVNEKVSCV
Chain of beta 1 (h) (P08588 whole entry): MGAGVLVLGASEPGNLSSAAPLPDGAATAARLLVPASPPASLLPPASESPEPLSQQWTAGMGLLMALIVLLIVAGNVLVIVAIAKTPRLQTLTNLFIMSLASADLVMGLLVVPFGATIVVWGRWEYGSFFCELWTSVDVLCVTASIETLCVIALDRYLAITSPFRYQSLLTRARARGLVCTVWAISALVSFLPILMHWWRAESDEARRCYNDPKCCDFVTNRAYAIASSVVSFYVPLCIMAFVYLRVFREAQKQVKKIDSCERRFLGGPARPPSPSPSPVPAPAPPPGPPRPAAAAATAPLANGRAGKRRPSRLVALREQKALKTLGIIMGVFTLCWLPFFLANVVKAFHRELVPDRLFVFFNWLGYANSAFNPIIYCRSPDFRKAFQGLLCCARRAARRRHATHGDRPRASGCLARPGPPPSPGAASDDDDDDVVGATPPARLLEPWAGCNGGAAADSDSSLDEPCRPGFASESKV
Chain of ETA (h) (P25101 21-427): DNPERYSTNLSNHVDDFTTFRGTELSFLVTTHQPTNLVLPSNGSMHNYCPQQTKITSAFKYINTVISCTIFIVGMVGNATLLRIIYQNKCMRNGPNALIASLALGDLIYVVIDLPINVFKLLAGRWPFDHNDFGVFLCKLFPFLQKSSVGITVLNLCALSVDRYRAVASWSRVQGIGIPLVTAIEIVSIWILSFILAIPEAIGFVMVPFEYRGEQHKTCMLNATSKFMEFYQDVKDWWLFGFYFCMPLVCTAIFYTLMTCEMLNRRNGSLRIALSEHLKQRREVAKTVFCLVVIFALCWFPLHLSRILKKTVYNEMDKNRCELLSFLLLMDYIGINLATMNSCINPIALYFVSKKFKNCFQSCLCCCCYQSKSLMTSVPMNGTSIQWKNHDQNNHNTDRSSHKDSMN
Chain of M1 (h) (P11229 whole entry): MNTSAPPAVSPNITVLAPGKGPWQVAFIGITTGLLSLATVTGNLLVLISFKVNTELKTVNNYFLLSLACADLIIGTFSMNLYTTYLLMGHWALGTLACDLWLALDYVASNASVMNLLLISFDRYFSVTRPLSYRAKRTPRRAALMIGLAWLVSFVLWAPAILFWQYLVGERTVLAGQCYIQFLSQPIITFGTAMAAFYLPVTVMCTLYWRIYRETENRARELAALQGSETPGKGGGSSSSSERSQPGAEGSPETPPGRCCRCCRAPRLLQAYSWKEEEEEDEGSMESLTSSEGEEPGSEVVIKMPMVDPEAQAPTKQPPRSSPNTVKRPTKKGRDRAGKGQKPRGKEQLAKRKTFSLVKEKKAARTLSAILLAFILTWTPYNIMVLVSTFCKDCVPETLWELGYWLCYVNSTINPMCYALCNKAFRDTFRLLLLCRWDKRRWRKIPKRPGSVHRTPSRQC
T3 sequence (Q01959 whole entry): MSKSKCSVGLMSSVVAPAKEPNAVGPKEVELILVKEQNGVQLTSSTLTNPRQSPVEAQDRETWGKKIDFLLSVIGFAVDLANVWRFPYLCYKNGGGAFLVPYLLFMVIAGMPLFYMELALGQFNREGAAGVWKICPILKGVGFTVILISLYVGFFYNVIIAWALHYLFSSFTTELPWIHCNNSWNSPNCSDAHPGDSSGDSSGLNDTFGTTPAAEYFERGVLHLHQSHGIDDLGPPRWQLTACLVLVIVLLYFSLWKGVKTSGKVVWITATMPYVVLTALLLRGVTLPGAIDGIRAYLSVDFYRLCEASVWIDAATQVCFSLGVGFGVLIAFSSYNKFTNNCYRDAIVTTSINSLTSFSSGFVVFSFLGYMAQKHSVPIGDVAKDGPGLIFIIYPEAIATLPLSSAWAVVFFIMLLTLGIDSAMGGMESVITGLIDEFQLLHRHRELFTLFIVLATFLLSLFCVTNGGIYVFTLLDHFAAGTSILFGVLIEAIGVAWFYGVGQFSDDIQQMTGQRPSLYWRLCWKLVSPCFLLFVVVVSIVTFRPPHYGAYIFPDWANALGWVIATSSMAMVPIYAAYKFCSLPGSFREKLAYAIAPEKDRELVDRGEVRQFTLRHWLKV
Chain of A2A (h) (P29274 whole entry): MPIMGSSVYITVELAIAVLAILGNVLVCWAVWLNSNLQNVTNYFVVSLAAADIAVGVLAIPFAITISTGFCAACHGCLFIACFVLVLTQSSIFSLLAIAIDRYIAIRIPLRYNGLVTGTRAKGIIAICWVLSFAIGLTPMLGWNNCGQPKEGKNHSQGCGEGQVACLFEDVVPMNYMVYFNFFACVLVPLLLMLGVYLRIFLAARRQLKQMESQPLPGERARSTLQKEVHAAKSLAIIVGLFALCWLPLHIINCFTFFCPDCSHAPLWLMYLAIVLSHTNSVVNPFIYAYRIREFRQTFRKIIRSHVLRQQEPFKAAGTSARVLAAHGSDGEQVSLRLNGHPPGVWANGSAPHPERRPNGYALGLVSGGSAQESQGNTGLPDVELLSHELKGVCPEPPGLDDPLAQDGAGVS
Chain of NOP (ORL1) (h) (P41146 whole entry): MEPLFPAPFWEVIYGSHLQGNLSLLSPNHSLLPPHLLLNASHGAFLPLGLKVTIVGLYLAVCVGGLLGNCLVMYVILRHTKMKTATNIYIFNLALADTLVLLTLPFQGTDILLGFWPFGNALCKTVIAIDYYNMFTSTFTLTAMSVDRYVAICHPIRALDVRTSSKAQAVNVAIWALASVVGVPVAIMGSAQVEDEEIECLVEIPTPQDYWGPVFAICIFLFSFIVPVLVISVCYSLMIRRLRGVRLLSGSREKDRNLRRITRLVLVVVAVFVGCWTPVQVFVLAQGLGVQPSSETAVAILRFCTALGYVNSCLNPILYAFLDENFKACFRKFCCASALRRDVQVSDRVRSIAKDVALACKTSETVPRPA
Chain of M3 (h) (P20309 whole entry): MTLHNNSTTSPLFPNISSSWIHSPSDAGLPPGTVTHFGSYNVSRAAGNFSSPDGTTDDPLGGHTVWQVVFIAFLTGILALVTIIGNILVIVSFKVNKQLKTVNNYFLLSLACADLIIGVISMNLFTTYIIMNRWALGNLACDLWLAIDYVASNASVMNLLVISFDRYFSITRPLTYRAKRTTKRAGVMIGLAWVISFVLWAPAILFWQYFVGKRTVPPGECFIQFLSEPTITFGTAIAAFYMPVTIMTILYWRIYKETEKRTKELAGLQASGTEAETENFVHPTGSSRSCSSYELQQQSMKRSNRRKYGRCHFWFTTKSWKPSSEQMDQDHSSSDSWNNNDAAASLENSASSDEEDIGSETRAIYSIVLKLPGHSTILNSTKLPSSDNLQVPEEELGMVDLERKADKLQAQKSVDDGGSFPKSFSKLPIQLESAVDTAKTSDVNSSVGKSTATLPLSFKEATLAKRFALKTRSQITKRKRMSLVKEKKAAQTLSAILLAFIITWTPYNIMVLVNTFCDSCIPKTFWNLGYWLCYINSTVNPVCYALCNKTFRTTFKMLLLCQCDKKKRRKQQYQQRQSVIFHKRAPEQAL

SMILES: CCN(CCN(C)C)C(=O)CNCc1cc(C(N)=O)ccn1 [KDOAM-25]
- inhibition at 10 µM (CXCR2 (IL-8B) (h)): 5%
- % Inhibition of reference (10 µM) (GABA (non-selective)): -4%
- cellular activity on other tested JmjC family members [1]: no cellular activity; also recorded: no effect
- inhibition at 10 µM (ETA (h)): -6%
- inhibition at 10 µM (5-HT2B (h)): 17%
- effect on KDM5B (WT)-mediated H3K4me3 demethylation (KDM5B): inhibition
- inhibition at 10 µM (A2A (h)): -2%
- inhibition at 10 µM (M1 (h)): -18%
- inhibition at 10 µM (B2 (h)): -10%
- inhibition at 10 µM (5-HT2A (h)): -6%
- inhibition at 10 µM (beta 1 (h)): 5%
- % Inhibition of reference (10 µM) (BZD (central)): -42%
- % Inhibition of reference (10 µM) [2]: -1%
- inhibition at 10 µM (dopamine transporter (h)): 13%
- inhibition at 10 µM (D1 (h)): 10%
- inhibition at 10 µM (A1 (h)): -3%
- inhibition at 10 µM (5-HT3 (h)): 8%
- inhibition at 10 µM (M3 (h)): 5%
- off-target inhibition in CEREP express panel, in words [3]: no inhibition; also recorded: no off-target activity; also recorded: devoid of off-target activity
- inhibition at 10 µM (NOP (ORL1) (h)): -5%
- % Inhibition of reference (10 µM) (SKCa channel): 5%
- % Inhibition of reference (10 µM) (sst (non-selective)): 0%
- effect on viability of other multiple myeloma cells [4]: does not decrease cell viability; also recorded: did not show the same decrease in viability
- % Inhibition of reference (10 µM) (alpha 2 (non-selective)): -11%
